Source: ChEMBL document CHEMBL1201862, “PubChem BioAssay data set” (2004)
Calls of active or inactive are those of the source.

Experiments:
[1] = target: T1, DNA repair protein RAD52 homolog (Homo sapiens, UniProt P43351); format: functional, biochemical
T1 sequence (P43351 whole entry): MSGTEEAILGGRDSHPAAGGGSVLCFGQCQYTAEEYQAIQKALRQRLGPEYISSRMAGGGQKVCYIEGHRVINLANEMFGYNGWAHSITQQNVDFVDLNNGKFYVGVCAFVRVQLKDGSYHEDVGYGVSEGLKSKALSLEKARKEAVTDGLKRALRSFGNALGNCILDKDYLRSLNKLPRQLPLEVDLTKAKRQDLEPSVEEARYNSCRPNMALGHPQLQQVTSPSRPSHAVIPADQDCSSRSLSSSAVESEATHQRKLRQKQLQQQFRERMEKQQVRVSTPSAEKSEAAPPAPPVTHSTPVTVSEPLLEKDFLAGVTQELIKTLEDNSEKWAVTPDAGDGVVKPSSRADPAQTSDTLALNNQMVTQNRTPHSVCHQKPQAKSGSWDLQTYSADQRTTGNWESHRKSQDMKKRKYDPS

[2] = target: T2, Rac GTPase-activating protein 1 (Homo sapiens, UniProt Q9H0H5); experiment: MgcRacGAP GTPase-activating activity inhibitors, confirmation, biochemical, ADP Hunter fluorescence, primary and confirmatory (AID 624330); format: functional
T2 sequence (Q9H0H5 whole entry): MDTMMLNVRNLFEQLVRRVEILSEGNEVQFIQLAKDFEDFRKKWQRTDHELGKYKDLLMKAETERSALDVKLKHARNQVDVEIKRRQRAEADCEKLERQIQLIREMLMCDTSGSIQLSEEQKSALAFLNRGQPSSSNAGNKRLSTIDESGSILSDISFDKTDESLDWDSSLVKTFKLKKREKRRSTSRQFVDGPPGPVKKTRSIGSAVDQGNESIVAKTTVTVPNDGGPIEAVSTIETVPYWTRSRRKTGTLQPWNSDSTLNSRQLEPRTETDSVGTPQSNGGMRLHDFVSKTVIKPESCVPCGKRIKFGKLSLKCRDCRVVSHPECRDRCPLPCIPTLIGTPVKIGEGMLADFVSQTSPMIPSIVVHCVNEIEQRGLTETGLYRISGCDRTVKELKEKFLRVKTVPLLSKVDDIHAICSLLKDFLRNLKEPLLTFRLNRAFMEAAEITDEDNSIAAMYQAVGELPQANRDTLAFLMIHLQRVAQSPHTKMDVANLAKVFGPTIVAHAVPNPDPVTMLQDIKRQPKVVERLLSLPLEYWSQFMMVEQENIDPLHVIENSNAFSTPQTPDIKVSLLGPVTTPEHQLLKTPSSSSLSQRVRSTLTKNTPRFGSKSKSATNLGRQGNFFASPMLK

[3] = cytotoxicity toward NIH3T3 fibroblasts, dose response, counter-screen, cell-based, ATP luminescence, mouse fibroblasts (AID 2010); format: functional;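 note: cells exposed to compound for about 90 hours before reading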
[4] = target: SWI/SNF-related matrix-associated actin-dependent regulator of chromatin subfamily A member 2 (Homo sapiens, UniProt P51531); experiment: Luminescence-based cell-based high throughput dose response assay to identify activators of the function of SWI/SNF related, matrix associated, actin dependent regulator of chromatin, subfamily a, member 2 (SMARCA2, BRM).; format: functional
Sequence of SWI/SNF-related matrix-associated actin-dependent regulator of chromatin subfamily A member 2 (P51531 whole entry): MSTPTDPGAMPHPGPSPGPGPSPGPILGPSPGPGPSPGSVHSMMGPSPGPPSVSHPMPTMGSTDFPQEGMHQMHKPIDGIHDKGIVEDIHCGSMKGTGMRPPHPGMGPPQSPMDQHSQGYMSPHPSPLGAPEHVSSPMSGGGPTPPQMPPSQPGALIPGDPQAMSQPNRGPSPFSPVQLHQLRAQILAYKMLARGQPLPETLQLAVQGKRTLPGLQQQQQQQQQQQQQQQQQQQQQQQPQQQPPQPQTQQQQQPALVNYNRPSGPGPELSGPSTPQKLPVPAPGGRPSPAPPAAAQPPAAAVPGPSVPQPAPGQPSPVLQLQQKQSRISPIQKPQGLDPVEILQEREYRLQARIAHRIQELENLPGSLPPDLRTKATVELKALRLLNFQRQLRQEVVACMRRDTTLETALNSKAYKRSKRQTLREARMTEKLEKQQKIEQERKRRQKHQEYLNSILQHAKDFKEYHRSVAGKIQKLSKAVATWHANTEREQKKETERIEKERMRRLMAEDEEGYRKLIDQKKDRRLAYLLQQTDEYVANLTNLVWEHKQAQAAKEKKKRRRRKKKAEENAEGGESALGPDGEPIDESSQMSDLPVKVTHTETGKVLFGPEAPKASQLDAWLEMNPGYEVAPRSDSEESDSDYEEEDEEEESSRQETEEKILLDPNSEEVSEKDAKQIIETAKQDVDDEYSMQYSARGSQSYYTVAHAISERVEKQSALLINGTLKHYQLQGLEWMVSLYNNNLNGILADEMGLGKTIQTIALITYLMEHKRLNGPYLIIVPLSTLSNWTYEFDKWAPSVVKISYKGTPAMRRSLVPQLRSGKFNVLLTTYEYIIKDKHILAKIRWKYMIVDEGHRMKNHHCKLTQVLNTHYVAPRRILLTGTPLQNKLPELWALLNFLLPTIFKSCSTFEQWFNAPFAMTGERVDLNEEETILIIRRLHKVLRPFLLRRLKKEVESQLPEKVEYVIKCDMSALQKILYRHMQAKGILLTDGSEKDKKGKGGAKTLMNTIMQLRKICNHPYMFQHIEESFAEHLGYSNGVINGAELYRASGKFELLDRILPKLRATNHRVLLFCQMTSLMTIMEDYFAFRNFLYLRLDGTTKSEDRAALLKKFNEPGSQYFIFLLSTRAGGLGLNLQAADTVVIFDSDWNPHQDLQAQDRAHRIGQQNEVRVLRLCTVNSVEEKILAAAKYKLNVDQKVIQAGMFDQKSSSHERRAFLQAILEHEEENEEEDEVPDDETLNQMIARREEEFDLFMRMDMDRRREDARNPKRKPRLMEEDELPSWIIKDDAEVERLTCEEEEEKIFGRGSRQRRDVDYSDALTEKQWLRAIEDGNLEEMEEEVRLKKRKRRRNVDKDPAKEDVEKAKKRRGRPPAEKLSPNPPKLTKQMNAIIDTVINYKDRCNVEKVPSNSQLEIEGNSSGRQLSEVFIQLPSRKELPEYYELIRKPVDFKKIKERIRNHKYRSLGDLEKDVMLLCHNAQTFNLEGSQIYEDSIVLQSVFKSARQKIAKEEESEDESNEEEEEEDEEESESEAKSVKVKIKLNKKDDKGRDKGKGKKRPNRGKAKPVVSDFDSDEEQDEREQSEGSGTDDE

[5] = HeLa cell cytotoxicity, dose response, cytotoxicity control for MgcRacGAP inhibitor project (AID 624300); format: functional
[6] = inhibitors of intracellular T. cruzi replication, confirmation, NIH3T3 host cells, beta-gal luminescence (AID 2044); format: functional, cell-based;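 note: intracellular parasites grown in NIH/3T3 mouse fibroblasts as host cells; luminescent beta-galactosidase reporter signal from transgenic T. cruzi replicating inside host cells; inhibitors lower the luminescence signal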
[7] = Counterscreen for activators of the function of SWI/SNF related, matrix associated, actin dependent regulator of chromatin, subfamily a, member 2 (SMARCA2, BRM): Luminescence-based cell-based high throughput dose response assay to identify non-selective compounds using the VP16 reporter assay.; format: functional
INS1 = experiment: beta cell apoptosis inhibitors, cytokine rescue, dose response, luminescence, retest (AID 449756); format: functional, cell-based; conditions: Rattus norvegicus;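 note: cell death triggered by IL-1 beta plus TNF-alpha plus IFN-gamma mixture; protective hits raise ATP signal compared with cytokine alone wells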
[8] = target: T3, Microphthalmia-associated transcription factor (Homo sapiens, UniProt O75030); experiment: TRPM1 promoter luciferase signal decrease, dose response, MITF inhibitor project, cell-based, SK-MEL-5, cherry-picked, set 3 (AID 493073); format: functional
T3 sequence (O75030 whole entry): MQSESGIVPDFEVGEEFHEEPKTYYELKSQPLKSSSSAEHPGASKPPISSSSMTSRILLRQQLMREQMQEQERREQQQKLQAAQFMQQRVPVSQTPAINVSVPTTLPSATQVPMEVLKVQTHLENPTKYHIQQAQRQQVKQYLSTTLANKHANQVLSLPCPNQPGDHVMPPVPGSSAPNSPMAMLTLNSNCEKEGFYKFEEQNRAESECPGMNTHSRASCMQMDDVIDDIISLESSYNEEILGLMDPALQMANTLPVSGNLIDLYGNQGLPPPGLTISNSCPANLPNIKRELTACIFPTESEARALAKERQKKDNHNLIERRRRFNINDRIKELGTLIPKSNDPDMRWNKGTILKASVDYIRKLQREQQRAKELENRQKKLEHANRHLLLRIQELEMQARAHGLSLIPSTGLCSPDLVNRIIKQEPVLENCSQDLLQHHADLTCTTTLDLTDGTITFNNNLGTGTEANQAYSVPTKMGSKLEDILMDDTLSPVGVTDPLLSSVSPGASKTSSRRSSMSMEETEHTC

cells [9] = format: functional, cell-based
[10] = target: T4, Heat shock factor protein 1 (Mus musculus, UniProt P38532); experiment: HSF1 potentiators in luciferase reporter cells, confirmation, cell-based, NIH3T3, luminescence, dose retest (AID 435004); format: functional;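 note: stress induced by proteasome inhibitor MG132 added 30 min after compound; luciferase reporter driven by HSF1 response element in NIH3T3 cells; actives raise luminescence as potentiators of the MG132 stress response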
T4 sequence (P38532 whole entry): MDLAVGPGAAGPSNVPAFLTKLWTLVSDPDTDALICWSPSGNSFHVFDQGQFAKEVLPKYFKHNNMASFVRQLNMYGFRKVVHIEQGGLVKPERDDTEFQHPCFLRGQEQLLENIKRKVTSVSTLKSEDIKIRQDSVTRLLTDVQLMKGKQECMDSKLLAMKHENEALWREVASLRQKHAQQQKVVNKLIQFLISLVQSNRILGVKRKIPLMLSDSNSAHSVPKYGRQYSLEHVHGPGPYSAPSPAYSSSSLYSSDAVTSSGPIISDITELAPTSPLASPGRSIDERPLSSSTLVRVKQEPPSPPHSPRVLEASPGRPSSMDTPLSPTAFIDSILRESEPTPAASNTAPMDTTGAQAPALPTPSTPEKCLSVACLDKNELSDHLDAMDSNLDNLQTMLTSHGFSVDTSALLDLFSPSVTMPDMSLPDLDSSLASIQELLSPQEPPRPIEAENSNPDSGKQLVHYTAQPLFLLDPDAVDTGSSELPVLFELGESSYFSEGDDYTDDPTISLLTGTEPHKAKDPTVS

cells [11] = format: functional, cell-based; remark: listed apart in the source
[12] = Luminescence-based cell-based high throughput dose response assay to identify activators of the DAF-12 from the parasite S. stercoralis (ssDAF-12).; format: functional
[13] = HEK293 cell viability, dose response, counter-screen for EBV LMP1 inhibitor project, dry powder, set 2 (AID 624374); format: functional
[14] = target: Long-chain-fatty-acid--AMP ligase FadD28 (Mycobacterium tuberculosis, UniProt P9WQ59); experiment: Fluorescence polarization aasay to screen for inhibitors that compete for the binding of FadD28 to a bisubstrate Measured in Biochemical System Using Plate Reader - 2147-01_Inhibitor_Dose_CherryPick_Activity.; format: functional, Mycobacterium tuberculosis H37Rv
Sequence of Long-chain-fatty-acid--AMP ligase FadD28 (P9WQ59 whole entry): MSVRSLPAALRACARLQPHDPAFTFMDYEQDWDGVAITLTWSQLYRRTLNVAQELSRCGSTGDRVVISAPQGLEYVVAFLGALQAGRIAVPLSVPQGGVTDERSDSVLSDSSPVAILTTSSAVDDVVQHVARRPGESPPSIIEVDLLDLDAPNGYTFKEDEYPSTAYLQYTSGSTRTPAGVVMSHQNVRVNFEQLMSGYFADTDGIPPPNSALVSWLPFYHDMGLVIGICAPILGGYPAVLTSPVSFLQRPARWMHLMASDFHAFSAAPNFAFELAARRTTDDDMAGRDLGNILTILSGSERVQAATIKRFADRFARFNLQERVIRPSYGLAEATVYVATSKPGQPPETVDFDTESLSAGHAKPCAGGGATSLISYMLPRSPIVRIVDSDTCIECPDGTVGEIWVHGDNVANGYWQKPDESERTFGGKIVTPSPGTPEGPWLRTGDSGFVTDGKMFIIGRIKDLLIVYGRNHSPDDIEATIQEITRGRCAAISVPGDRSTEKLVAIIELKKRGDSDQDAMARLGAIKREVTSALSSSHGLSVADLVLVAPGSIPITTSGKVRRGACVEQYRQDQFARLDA

Estrogen receptor = target: T5, Estrogen receptor (Homo sapiens, UniProt P03372);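 note: potency for inhibiting coactivator peptide recruitment to the receptor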
T5 sequence (P03372 whole entry): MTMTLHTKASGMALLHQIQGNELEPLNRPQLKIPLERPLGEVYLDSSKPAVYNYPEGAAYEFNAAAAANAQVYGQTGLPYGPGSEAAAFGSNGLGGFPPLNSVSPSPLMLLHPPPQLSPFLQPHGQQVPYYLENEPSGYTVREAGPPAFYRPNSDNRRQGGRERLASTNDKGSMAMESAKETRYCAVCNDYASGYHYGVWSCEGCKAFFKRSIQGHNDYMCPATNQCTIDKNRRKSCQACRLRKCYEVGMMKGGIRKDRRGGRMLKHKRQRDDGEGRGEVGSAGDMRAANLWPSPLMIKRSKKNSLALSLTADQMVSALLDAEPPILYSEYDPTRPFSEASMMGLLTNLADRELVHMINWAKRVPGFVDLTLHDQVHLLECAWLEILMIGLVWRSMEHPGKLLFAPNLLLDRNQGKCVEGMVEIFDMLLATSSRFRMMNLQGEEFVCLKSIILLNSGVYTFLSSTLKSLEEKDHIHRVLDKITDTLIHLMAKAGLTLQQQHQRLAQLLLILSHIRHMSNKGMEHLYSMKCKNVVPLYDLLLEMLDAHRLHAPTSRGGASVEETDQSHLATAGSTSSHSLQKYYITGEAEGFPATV

[15] = target: T6, COUP transcription factor 2 (Homo sapiens, UniProt P24468); experiment: Luminescence-based cell-based high throughput dose response assay to identify inhibitors of COUP-TFII (NR2F2).; format: functional;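 note: HEK293 cells transiently cotransfected with COUP-TFII expression vector and reporter; luciferase reporter luminescence driven by COUP-TFII from the pX2-168 reporter plasmid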
T6 sequence (P24468 whole entry): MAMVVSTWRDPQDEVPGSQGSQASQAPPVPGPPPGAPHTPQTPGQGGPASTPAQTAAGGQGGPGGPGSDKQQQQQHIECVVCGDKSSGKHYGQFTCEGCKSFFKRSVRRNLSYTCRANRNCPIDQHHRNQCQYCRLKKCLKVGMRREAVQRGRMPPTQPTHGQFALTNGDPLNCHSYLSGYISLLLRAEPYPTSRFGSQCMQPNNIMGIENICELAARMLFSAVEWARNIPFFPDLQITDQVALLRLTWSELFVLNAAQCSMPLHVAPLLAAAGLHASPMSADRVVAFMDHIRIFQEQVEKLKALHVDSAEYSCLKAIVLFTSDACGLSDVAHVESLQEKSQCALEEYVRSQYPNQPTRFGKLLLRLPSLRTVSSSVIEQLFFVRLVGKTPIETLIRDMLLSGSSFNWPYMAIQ

cells [16] = format: functional, cell-based; conditions: HEK-CNG
Galanin receptor type 3 = Galanin receptor type 3 (Homo sapiens, UniProt O60755); experiment: Fluorescence-based cell-based primary high throughput dose response assay to identify antagonists of the Galanin Receptor 3 (GalR3).; format: functional
Sequence of Galanin receptor type 3 (O60755 whole entry): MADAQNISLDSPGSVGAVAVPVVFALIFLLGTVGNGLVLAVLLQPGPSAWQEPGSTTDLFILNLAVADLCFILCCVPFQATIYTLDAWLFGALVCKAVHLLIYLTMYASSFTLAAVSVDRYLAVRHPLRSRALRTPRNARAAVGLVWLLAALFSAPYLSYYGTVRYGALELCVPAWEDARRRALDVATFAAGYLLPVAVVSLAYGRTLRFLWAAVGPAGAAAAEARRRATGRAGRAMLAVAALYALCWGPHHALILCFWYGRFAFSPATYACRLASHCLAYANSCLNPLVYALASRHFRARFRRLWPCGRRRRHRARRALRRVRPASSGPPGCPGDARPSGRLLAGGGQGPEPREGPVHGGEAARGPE

Compound: COc1ccc(/C=N/Nc2cc(C)nc3c(C)cccc23)cc1
- AC50 [1]: 2.28 µM (active)
- IC50 [2]: 68.9 µM (active)
- EC50 [3]: > 60 µM (not active)
- EC50 [4]: > 91.2 µM (inactive)
- CC50 [5]: 31.6 µM (active)
- EC50 [6]: 1.14 µM (active)
- EC50 [7]: > 91.2 µM (inactive)

Compound: CCN(CC)CCn1nc2c3c(cccc3c1=O)-c1ccccc1-2
- AC50 (INS1): 2.4 µM (active)
- EC50 [4]: > 91.2 µM (inactive)
- AC50 [8]: 5.92 µM (active)
- EC50 (cells [9]): > 350 µM (not active)
- EC50 [10]: > 260 µM (inactive)
- EC50 (cells [11]): 41 µM (active)
- EC50 [6]: 1.46 µM (active)
- EC50 [7]: > 91.2 µM (inactive)
- IC50 [12]: > 67.5 µM (inactive)

Compound: Cc1noc(C)c1S(=O)(=O)Nc1ccc2c(c1)C(=O)N([C@H](C)CO)C[C@H](C)[C@H](CN(C)Cc1ccc(C(F)(F)F)cc1)OCCCC[C@H](C)O2
- AbsAC35 [13]: 76.4 µM

Compound: CCc1cccc2c(C(=O)Cn3nnc(-c4ccc(OC)c(OC)c4)n3)c[nH]c12
- AC50 [14]: 40.8 µM (active)
- IC50 (Estrogen receptor): 10.3 µM (active)

Compound: COc1ccccc1CNC(=O)C[C@H]1C[C@@H]2c3cc(NC(=O)CN(C)C)ccc3O[C@@H]2[C@@H](CO)O1
- AbsAC35 [13]: 106.52 µM

Compound: Nc1nc2ccccc2cc1C(=O)NCc1ccc(-c2ccccc2)cc1
- IC50 [15]: 2.01 µM (active)
- EC50 (cells [16]): > 29.9 µM (inactive)
- IC50 (Galanin receptor type 3): 0.392 µM (active)
